Experimental data from the supplement of paper PMC11781733.
Counter-ions that a name gives are not always drawn.

What was measured:
Conditions in all cases: exposure time: 15 min to 3 h acute
Dugesia japonica [1] = assay: contracted body shape incidence (% planarians (vehicle-normalised)); higher = higher incidence or increase relative to vehicle control
Procedure, shortened: (§1)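 Values are the incidence of each body shape or of any abnormal shape, ×100, relative to in-plate vehicle controls, and negatives are set to 0. Fasted D. japonica planarians (5–7 days), one per 200 μL well in sealed 48-well plates, were scored blind by hand within 15 minutes–3 hours of exposure to at least 5 concentrations; worms that crawled out were excluded.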

Dugesia japonica [2] = assay: any abnormal body shape incidence (% planarians (vehicle-normalised)); higher = higher incidence or increase relative to vehicle control
Procedure, shortened: as §1

Dugesia japonica [3] = assay: loss of phototaxis incidence (% planarians (vehicle-normalised)); higher = higher incidence or increase relative to vehicle control
Procedure, shortened: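 The endpoint was loss of phototaxis, scored yes/no by automated object tracking in intact, fasted Dugesia japonica kept singly in wells. Plates had 48 wells holding 200 μL, and worms were tested 15 min to 3 h after exposure in 0.5% DMSO or water vehicle. The incidence rate ×100 was normalised to in-plate vehicle controls, with negatives set to 0 and escaped worms excluded.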

Dugesia japonica [4] = assay: hyperkinesis incidence (% planarians (vehicle-normalised)); higher = higher incidence or increase relative to vehicle control
Procedure, shortened: as §1

Dugesia japonica [5] = assay: stickiness incidence (% planarians (vehicle-normalised)); higher = higher incidence or increase relative to vehicle control
Procedure, shortened: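 In the Stickiness assay, fasted Dugesia japonica planarians were each placed in one well of a sealed 48-well plate containing 200 μL of solution, with 0.5% DMSO or water as vehicle. Testing took place 15 min–3 h after exposure to half- or quarter-log concentration series. Stickiness was recorded as a binary endpoint, and its incidence was expressed relative to in-plate vehicle incidence after pooling technical triplicates and removing worms that crawled out. Negative values were set to 0 and all values were multiplied by 100.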

Dugesia japonica [6] = assay: pharynx extrusion incidence (% planarians (vehicle-normalised)); higher = higher incidence or increase relative to vehicle control
Procedure, shortened: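 Pharynx extrusion was scored manually and blind as a body-shape category, and its incidence was normalised to in-plate vehicle controls. Individual intact, fasted Dugesia japonica were kept in 200 μL per well of 48-well plates and tested 15 min to 3 h after exposure in water or 0.5% DMSO vehicle. Negatives were set to 0, and worms that crawled out were excluded.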

Dugesia japonica [7] = assay: speed in dark vs vehicle (% change vs vehicle); higher = higher incidence or increase relative to vehicle control
Description: (§2)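 Adult asexual Dugesia japonica planarians (1 per well, 48-well plate, n=24 over technical triplicates) were exposed acutely (15 min to 3 h) to each compound (0.5% DMSO or water vehicle) and screened on a robotic platform for crawl-out, stickiness, body shape, phototaxis, noxious-heat scrunching and locomotion endpoints. Binary endpoints are incidence rate x100 normalised to in-plate vehicle controls. Continuous endpoints are the median response normalised to the plate vehicle median, as % change or difference. Negative incidences after vehicle subtraction were set to 0.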

Dugesia japonica [8] = assay: total locomotor bursts minus vehicle (bursts difference vs vehicle); higher = higher incidence or increase relative to vehicle control
Procedure, shortened: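 Fasted Dugesia japonica planarians, one per well of a sealed 48-well plate in 200 μL solution, were tested 15 min–3 h after exposure to half- or quarter-log concentration series. The vehicle was 0.5% DMSO or water. Total locomotor bursts, an unstimulated behaviour, came from image-based object tracking, with technical triplicates totalling n = 24. Each planarian's value had the plate vehicle-control median subtracted, without ×100 scaling. The value is the median normalised response, and crawled-out worms were excluded.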

Dugesia japonica [9] = assay: anxiety (time in outer well region) vs vehicle (% change vs vehicle); higher = higher incidence or increase relative to vehicle control
Procedure, shortened: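 Time in the outer portion of each well was tracked by software for individual planarians, excluding any that crawled out, and the median normalized response is given. Worms (D. japonica, fasted 5–7 days) sat one per well in 200 μL in sealed 48-well plates, were exposed to at least 5 concentrations with n = 24 per concentration in technical triplicates, and were screened within 15 minutes–3 hours. Normalization divided each response by, or reduced it by, the plate vehicle median and multiplied the result by 100.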

Dugesia japonica [10] = assay: loss of heat-induced scrunching incidence (% planarians (vehicle-normalised)); higher = higher incidence or increase relative to vehicle control
Procedure, shortened: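 The incidence of worms lacking a scrunching response to a noxious heat stimulus, normalised to vehicle controls within each plate, is the value listed. It appears ×100 with negatives set to 0. Single D. japonica planarians in 200 μL per well of 48-well plates were exposed to at least 5 concentrations (n = 24 per concentration) and tested within 15 minutes–3 hours, excluding worms that crawled out.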

Dugesia japonica [11] = assay: noxious heat displacement strength vs vehicle (% change vs vehicle); higher = higher incidence or increase relative to vehicle control
Procedure, shortened: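 With automated object tracking, the scrunching assay gave displacement strength under noxious heat for intact, fasted Dugesia japonica, each normalised to its plate's vehicle median and summarised as the median percent change. Worms sat singly in 200 μL in 48-well plates and were tested 15 min to 3 h after exposure in 0.5% DMSO or water vehicle; those that crawled out were excluded.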

Dugesia japonica [12] = assay: resting fraction in blue light vs vehicle (difference in fraction x100 vs vehicle); higher = higher incidence or increase relative to vehicle control
Procedure, shortened: (§3)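 Values give the median resting fraction in the dark or under blue light, obtained by automated tracking with the plate's vehicle median subtracted from each worm and the difference multiplied by 100. Intact, fasted Dugesia japonica were placed one per well of a 48-well plate in 200 μL, eight per concentration per plate in technical triplicate. Tracking ran 15 min to 3 h after exposure in 0.5% DMSO or water vehicle, and any worm that crawled out was excluded.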

Dugesia japonica [13] = assay: C-shape incidence (% planarians (vehicle-normalised)); higher = higher incidence or increase relative to vehicle control
Procedure, shortened: as §1

Dugesia japonica [14] = assay: corkscrew incidence (% planarians (vehicle-normalised)); higher = higher incidence or increase relative to vehicle control
Procedure, shortened: as §1

Dugesia japonica [15] = assay: crawl-out incidence (% planarians); higher = higher incidence or increase relative to vehicle control
Description: as §2, with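 “x100.” for “x100 normalised to in-plate vehicle controls.”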

Dugesia japonica [16] = assay: speed second 30 s blue light vs vehicle (% change vs vehicle); higher = higher incidence or increase relative to vehicle control
Procedure, shortened: (§4)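 Values are median percent changes in crawling speed of intact, fasted Dugesia japonica, measured in the dark or during blue light by automated tracking and normalised per worm to the plate's vehicle median. Single worms in 200 μL per well of 48-well plates were tested 15 min to 3 h after exposure, with 0.5% DMSO or water as vehicle, and worms that crawled out were excluded.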

Dugesia japonica [17] = assay: speed first 30 s blue light vs vehicle (% change vs vehicle); higher = higher incidence or increase relative to vehicle control
Procedure, shortened: as §4

Dugesia japonica [18] = assay: resting fraction in dark vs vehicle (difference in fraction x100 vs vehicle); higher = higher incidence or increase relative to vehicle control
Procedure, shortened: as §3

| Compound | contracted body shape incidence (Dugesia japonica [1]) | any abnormal body shape incidence (Dugesia japonica [2]) | loss of phototaxis incidence (Dugesia japonica [3]) | hyperkinesis incidence (Dugesia japonica [4]) | stickiness incidence (Dugesia japonica [5]) | pharynx extrusion incidence (Dugesia japonica [6]) | speed in dark (Dugesia japonica [7]) | total locomotor bursts minus vehicle (Dugesia japonica [8]) | anxiety (Dugesia japonica [9]) | loss of heat-induced scrunching incidence (Dugesia japonica [10]) | noxious heat displacement strength (Dugesia japonica [11]) | resting fraction in blue light (Dugesia japonica [12]) | C-shape incidence (Dugesia japonica [13]) | corkscrew incidence (Dugesia japonica [14]) | crawl-out incidence (Dugesia japonica [15]) | speed second 30 s blue light (Dugesia japonica [16]) | speed first 30 s blue light (Dugesia japonica [17]) | resting fraction in dark (Dugesia japonica [18]) |
| --- | --- | --- | --- | --- | --- | --- | --- | --- | --- | --- | --- | --- | --- | --- | --- | --- | --- | --- |
| CN(C)CCCN1c2ccccc2CCc2ccccc21 [imipramine] (0.316 µM) | 4.17 | 8.33 | 4.17 | 0 | ≤ 0 | 0 | -16.2 | 5.25 | -0.7 | ≤ 0 | 23.7 | 1.3 | 0 | 0 | 0 | -12.2 | -17.6 | 5.24 |
| CN1CCN(CCCN2c3ccccc3Sc3ccc(Cl)cc32)CC1 [prochloroperazine] (1 µM) | 0 | 4.35 | 4.35 | 4.35 | ≤ 0 | 0 | -31 | 10.5 | 9.41 | 26.1 | -10.7 | 5.37 | 0 | 0 | 4.17 | -13.4 | -22.6 | 7.43 |
| O=C(CCCN1CCC(O)(c2ccc(Br)cc2)CC1)c1ccc(F)cc1 [bromperidol] (1 µM) | 0 | 17.4 | ≤ 0 | 17.4 | ≤ 0 | 0 | -18.6 | 2.5 | 7.55 | 30.4 | -35.1 | 17.6 | 0 | 4.35 | 12.5 | -17.1 | -39.2 | 14.6 |
| CNCC[C@H](Oc1cccc2ccccc12)c1cccs1 [s-duloxetine] (1 µM) | 0 | 0 | 17.4 | 0 | 13 | 0 | 13.6 | 7 | 12.8 | 13 | -35.3 | 9.83 | 0 | 0 | 4.17 | -13.5 | 34.6 | -7.56 |
| O=C1CCc2ccc(OCCCCN3CCN(c4cccc(Cl)c4Cl)CC3)cc2N1 [aripiprazole] (1 µM) | 0 | 0 | 29.2 | 0 | ≤ 0 | 0 | 42.8 | -5.5 | 1.67 | ≤ 0 | 14.8 | -0.33 | 0 | 0 | 0 | 14.3 | 26 | -2.8 |
| CCCCNc1c(C(=O)OCC)c(C)nc2c1cnn2CC [tracazolate hydrochloride] (1 µM) | 0 | 0 | ≤ 0 | 0 | 8.33 | 0 | -16.4 | 3.25 | -16.4 | ≤ 0 | -26.2 | 0.18 | 0 | 0 | 0 | -8.21 | -20 | 1.34 |
| O=C1CC2(CCCC2)CC(=O)N1CCCCN1CCN(c2ncccn2)CC1 [buspirone] (1 µM) | 0 | 12.5 | 16.7 | 8.33 | ≤ 0 | 0 | 11.8 | 0.5 | 3.11 | ≤ 0 | -21.9 | 4.28 | 4.17 | 0 | 0 | -19.1 | -6.54 | -6.06 |
